According to patent US20240398757A1 (COCRYSTAL PHARMA, INC., priority 2022, published 2024):

Each molecule was assayed against T1, SARS2 protease (Severe acute respiratory syndrome coronavirus 2, UniProt P0DTD1) (assay: SARS-CoV-2 protease inhibition assay (SARS2 FRET protease assay)). Settings: IC50 (μM), SARS2 protease 30 nM, peptide substrate 1.3 μM, 120 minutes at 37° C., compounds 20 μM to 0.075 nM.
T1 construct: SARS2 protease was added to a final concentration of 30 nM
Type: biochemical

Going from `CCCC[C@H](NC(=O)OC(c1ccccc1)C(F)(F)c1cccc(Cl)c1)C(=O)N[C@@H](C[C@@H]1CCNC1=O)C(=O)c1nc2ccccc2s1` (stereo partly drawn) [Compound A238, 2-(3-chlorophenyl)-2,2-difluoro-1-phenylethyl ((S)-1-(((S)-1-(benzo[d]thiazol-2-yl)-1-oxo-3-((S)-2-oxopyrrolidin-3-yl)propan-2-yl)amino)-1-oxohexan-2-yl)carbamate] to `CCCC[C@H](NC(=O)O[C@H](c1ccccc1)C(F)(F)c1cccc(Cl)c1)C(=O)N[C@@H](C[C@@H]1CCNC1=O)C(=O)C(N)=O` [Compound A248, (R)-2-(3-chlorophenyl)-2,2-difluoro-1-phenylethyl ((S)-1-(((S)-4-amino-3,4-dioxo-1-((S)-2-oxopyrrolidin-3-yl)butan-2-yl)amino)-1-oxohexan-2-yl)carbamate], the IC50 falls from 1.16 µM to 0.0004 µM (2900-fold).

`CCNC(=O)C(=O)[C@H](C[C@@H]1CCNC1=O)NC(=O)[C@H](Cc1ccccc1)NC(=O)OC(c1ccccc1)C(F)(F)c1cccc(Cl)c1` (stereo partly drawn) [Compound A240, 2-(3-chlorophenyl)-2,2-difluoro-1-phenylethyl ((S)-1-(((S)-4-(ethylamino)-3,4-dioxo-1-((S)-2-oxopyrrolidin-3-yl)butan-2-yl)amino)-1-oxo-3-phenylpropan-2-yl)carbamate] and `O=C(N[C@@H](Cc1ccccc1)C(=O)N[C@@H](C[C@@H]1CCNC1=O)C(=O)C(=O)NC1CC1)OC(c1ccccc1)C(F)(F)c1cccc(Cl)c1` (stereo partly drawn) [Compound A241, 2-(3-chlorophenyl)-2,2-difluoro-1-phenylethyl ((S)-1-(((S)-4-(cyclopropylamino)-3,4-dioxo-1-((S)-2-oxopyrrolidin-3-yl)butan-2-yl)amino)-1-oxo-3-phenylpropan-2-yl)carbamate] are within 1.5-fold of each other in IC50: 0.638 µM for the first, 0.614 µM for the second.

Going from `CCCC(=O)OC([C@H](C[C@@H]1CCNC1=O)NC(=O)[C@H](CC1CCCCC1)NC(=O)O[C@@H](c1ccccc1)C(F)(F)c1cccc(Cl)c1)S(=O)(=O)O` (stereo partly drawn) [Compound A242, sodium (2S,6S,9S)-1-(3-chlorophenyl)-6-(cyclohexylmethyl)-1,1-difluoro-4,7,12-trioxo-9-(((S)-2-oxopyrrolidin-3-yl)methyl)-2-phenyl-3,11-dioxa-5,8-diazapentadecane-10-sulfonate] to `CCCC[C@H](NC(=O)OC(c1ccccc1)C(F)(F)c1cccc(Cl)c1)C(=O)N[C@@H](C[C@@H]1CCNC1=O)C(=O)C(=O)O` (stereo partly drawn) [Compound A250, (3S)-3-((2S)-2-(((2-(3-chlorophenyl)-2,2-difluoro-1-phenylethoxy)carbonyl)amino)hexanamido)-2-oxo-4-((S)-2-oxopyrrolidin-3-yl)butanoic acid], the IC50 falls from 1.2 µM to 0.036 µM (33-fold). The second is the more potent here.

First: CCCC[C@H](NC(=O)OC(c1cccnc1)C(F)(F)c1cccc(Cl)c1)C(=O)N[C@@H](C[C@@H]1CCNC1=O)C(=O)C(=O)NC1CC1 (stereo partly drawn) [Compound A252]
Second: CCCC[C@H](NC(=O)OC(c1ccncc1)C(F)(F)c1cccc(Cl)c1)C(=O)N[C@@H](C[C@@H]1CCNC1=O)C(=O)C(=O)NC1CC1 (stereo partly drawn) [Compound A257, 2-(3-Chlorophenyl)-2,2-difluoro-1-(pyridin-4-yl)ethyl ((S)-1-(((S)-4-(cyclopropylamino)-3,4-dioxo-1-((S)-2-oxopyrrolidin-3-yl)butan-2-yl)amino)-1-oxohexan-2-yl)carbamate]
The IC50 of the first is 20-fold higher: 0.002 µM for the first, 0.0001 µM for the second.

Compared with `O=C[C@H](C[C@@H]1CCNC1=O)NC(=O)[C@H](Cc1ccccc1)NC(=O)O[C@@H](c1ccccc1)C(F)(F)c1cccc(Cl)c1` [Compound A253, (S)-2-(3-chlorophenyl)-2,2-difluoro-1-phenylethyl ((S)-1-oxo-1-(((S)-1-oxo-3-((S)-2-oxopyrrolidin-3-yl)propan-2-yl)amino)-3-phenylpropan-2-yl)carbamate], `O=C[C@H](C[C@@H]1CCNC1=O)NC(=O)[C@H](Cc1ccc(Cl)cc1)NC(=O)OC(c1ccccc1)C(F)(F)c1cccc(Cl)c1` (stereo partly drawn) [Compound A262, 2-(3-chlorophenyl)-2,2-difluoro-1-phenylethyl ((S)-3-(4-chlorophenyl)-1-oxo-1-(((S)-1-oxo-3-((S)-2-oxopyrrolidin-3-yl)propan-2-yl)amino)propan-2-yl)carbamate] is 100-fold higher in IC50: 0.002 µM for the first, 0.203 µM for the second. The first is the more potent here.

Compared with `O=C[C@H](C[C@@H]1CCNC1=O)NC(=O)[C@H](Cc1ccccc1)NC(=O)OC(C1CCCCC1)C(F)(F)c1cccc(Cl)c1` (stereo partly drawn) [Compound A254], `CCNC(=O)C(=O)[C@H](C[C@@H]1CCNC1=O)NC(=O)[C@H](Cc1ccccc1)NC(=O)OC(C1CCCCC1)C(F)(F)c1cccc(Cl)c1` (stereo partly drawn) [Compound A255, 2-(3-Chlorophenyl)-1-cyclohexyl-2,2-difluoroethyl ((S)-1-(((S)-4-(ethylamino)-3,4-dioxo-1-((S)-2-oxopyrrolidin-3-yl)butan-2-yl)amino)-1-oxo-3-phenylpropan-2-yl)carbamate] is 100-fold higher in IC50: 0.002 µM for the first, 0.208 µM for the second. The first is the more potent here.

First: CCCC[C@H](NC(=O)OC(c1ccncc1)C(F)(F)c1cccc(Cl)c1)C(=O)N[C@H](C=O)C[C@@H]1CCNC1=O (stereo partly drawn) [Compound A256, 2-(3-Chlorophenyl)-2,2-difluoro-1-(pyridin-4-yl)ethyl ((S)-1-oxo-1-(((S)-1-oxo-3-((S)-2-oxopyrrolidin-3-yl)propan-2-yl)amino)hexan-2-yl)carbamate]
Second: CC(C)C(OC(=O)N[C@@H](Cc1ccccc1)C(=O)N[C@H](C=O)C[C@@H]1CCNC1=O)C(F)(F)c1cccc(Cl)c1 (stereo partly drawn) [Compound A266, 1-(3-Chlorophenyl)-1,1-difluoro-3-methylbutan-2-yl ((S)-1-oxo-1-(((S)-1-oxo-3-((S)-2-oxopyrrolidin-3-yl)propan-2-yl)amino)-3-phenylpropan-2-yl)carbamate]
The IC50 of the first is 10-fold higher: 0.001 µM for the first, 0.0001 µM for the second. The second is the more potent here.

Compared with `CCCC[C@H](NC(=O)CC(O)(Cc1cccc(Cl)c1)c1ccccc1)C(=O)N[C@@H](C[C@@H]1CCNC1=O)C(=O)C(=O)NCC` (stereo partly drawn) [Compound A259, (2S)-2-(4-(3-chlorophenyl)-3-hydroxy-3-phenylbutanamido)-N—((S)-4-(ethylamino)-3,4-dioxo-1-((S)-2-oxopyrrolidin-3-yl)butan-2-yl)hexanamide], `CCCC[C@H](NC(=O)CC(O)(c1ccccc1)C(C)(C)c1cccc(Cl)c1)C(=O)N[C@@H](C[C@@H]1CCNC1=O)C(=O)C(=O)NCC` (stereo partly drawn) [Compound A261, (2S)-2-(4-(3-chlorophenyl)-3-hydroxy-4-methyl-3-phenylpentanamido)-N—((S)-4-(ethylamino)-3,4-dioxo-1-((S)-2-oxopyrrolidin-3-yl)butan-2-yl)hexanamide] is 2.6-fold higher in IC50: 0.413 µM for the first, 1.09 µM for the second. The first is the more potent here.

First: CCCC[C@H](NC(=O)CC(O)(c1ccccc1)C(C)(C)c1cccc(Cl)c1)C(=O)N[C@H](C=O)C[C@@H]1CCNC1=O (stereo partly drawn) [Compound A260, (2S)-2-(4-(3-chlorophenyl)-3-hydroxy-4-methyl-3-phenylpentanamido)-N—((S)-1-oxo-3-((S)-2-oxopyrrolidin-3-yl)propan-2-yl)hexanamide]
Second: CCNC(=O)C(=O)[C@H](C[C@@H]1CCNC1=O)NC(=O)[C@H](Cc1ccc(Cl)cc1)NC(=O)OC(c1ccccc1)C(F)(F)c1cccc(Cl)c1 (stereo partly drawn) [Compound A263, 2-(3-chlorophenyl)-2,2-difluoro-1-phenylethyl ((S)-3-(4-chlorophenyl)-1-(((S)-4-(ethylamino)-3,4-dioxo-1-((S)-2-oxopyrrolidin-3-yl)butan-2-yl)amino)-1-oxopropan-2-yl)carbamate]
The IC50 of the first is 3500-fold lower: 0.002 µM for the first, 7.02 µM for the second.
